According to paper PMC8035703, “Effect of Synchronous Versus Sequential Regimens on the Pharmacokinetics and Biodistribution of Regorafenib with Irradiation” (Pharmaceutics, 2021):
“Also recorded” adds a separate entry of the source. Like-named read-outs stand apart in the source and are kept apart here.

Columns and labels:
[1] = tested on: HA22T cells; assay: Colony formation assay; type: cell-based, human
Protocol: HA22T cells kindly provided from professor Hu (Taipei Veterans General Hospital, Taiwan) were treated with trypsin to detach, counted and plated (400 per plate) into dishes measuring 60 mm, […] and allowed to grow for 10 days. Cells were stained, and colonies containing ≥ 50 cells were counted.

[2] = tested on: HCC patients; design: method as in PMID 29704513; settings: patients treated with sorafenib followed by regorafenib; cited from earlier work
[3] = tested on: CYP3A4; design: method as in PMID 21170960; settings: cited from earlier work
[4] = Organ distribution of regorafenib in rats with or without RT; type: in vivo, Sprague-Dawley rats; settings: for concentration at 4 h: Sprague-Dawley, rat, 16 mg/kg, 4 h after oral administration
Protocol: According to the formula used to translate doses from animal to human, human equivalent dose (HED, mg/kg) = animal dose (mg/kg) × animal km/human km, we calculated the daily dose of regorafenib for rats to be 16 (mg/kg/day). The rats were randomly divided into ten groups with six rats in each group. The concurrent groups treated with regorafenib 1 h after RT, in the same day, to mimic regorafenib concurrent with RT in the daily practice. The sequential groups treated with regorafenib following RT (not in the same day), to mimic RT followed by regorafenib in the daily practice. The one fraction study group included (A) a sham group, regorafenib with RT0 Gy (regorafenib × 1 d); concurrent groups treated with regorafenib 1 h after (B) RT2 Gy with 1 fraction (RT2 Gy × 1 f’x) and (D) RT9 Gy with 1 fraction (RT9 Gy × 1 f’x); and sequential groups treated with regorafenib 24 h after (C) RT2 Gy × 1 f’x and (E) RT9 Gy × 1 f’x. Continued treatment mimicking clinical practice was applied to (A) a sham group, regorafenib (p.o. (per os), q.d. × 3 d) with RT0 Gy (regorafenib × 3 d); concurrent groups treated with regorafenib (p.o., q.d. × 3 d) 1 h after (B) RT2 Gy with 3 fractions (RT2 Gy × 3 f’x) and (D) RT9 Gy with 3 fractions (RT9Gy × 3 f’x); and sequential groups treated with regorafenib 24 h (p.o., q.d. × 3 d) after (C) RT2 Gy × 3 f’x and (E) RT9 Gy × 3 f’x. (Figure 1A,B).
Organs, including the brain, liver, heart, spleen, lung and kidney, were collected, weighed and stored at −20 °C, until analysis.
The organ samples were homogenized in 50% aqueous acetonitrile (sample weight: volume = 1:5) and centrifuged at 13,000× g, for 10 min, at 4 °C. The supernatant was stored at −20 °C, until analysis. Additionally, 150 μL of IS solution (diethylstilbestrol) was combined with each organ sample (50 μL) for protein precipitation. Finally, the filtrate (20 μL) was analyzed by HPLC.

concentration at 4 h ([4]; brain, oral, RT2 Gy × 1 f'x followed by regorafenib 16 mg/kg × 1 d (sequential), read-out: Concentration in brain): 80 ± 60 ng/g | concentration at 4 h ([4]; brain, oral, RT2 Gy × 3 f'x followed by regorafenib 16 mg/kg × 3 d (sequential), read-out: Concentration in brain): 30 ± 50 ng/g | concentration at 4 h ([4]; brain, oral, RT2 Gy × 3 f'x with regorafenib 16 mg/kg × 3 d (concurrent), read-out: Concentration in brain): 20 ± 50 ng/g | concentration at 4 h ([4]; brain, oral, RT9 Gy × 1 f'x with regorafenib 16 mg/kg × 1 d (concurrent), read-out: Concentration in brain): 10 ± 20 ng/g | concentration at 4 h ([4]; heart, oral, RT2 Gy × 1 f'x followed by regorafenib 16 mg/kg × 1 d (sequential), read-out: Concentration in heart): 780 ± 270 ng/g | concentration at 4 h ([4]; heart, oral, RT2 Gy × 3 f'x followed by regorafenib 16 mg/kg × 3 d (sequential), read-out: Concentration in heart): 290 ± 180 ng/g | concentration at 4 h ([4]; heart, oral, RT2 Gy × 3 f'x with regorafenib 16 mg/kg × 3 d (concurrent), read-out: Concentration in heart): 30 ± 30 ng/g | concentration at 4 h ([4]; heart, oral, RT9 Gy × 1 f'x with regorafenib 16 mg/kg × 1 d (concurrent), read-out: Concentration in heart): 360 ± 330 ng/g | concentration at 4 h ([4]; kidney, oral, RT2 Gy × 1 f'x followed by regorafenib 16 mg/kg × 1 d (sequential), read-out: Concentration in kidneys): 590 ± 270 ng/g | concentration at 4 h ([4]; kidney, oral, RT2 Gy × 3 f'x followed by regorafenib 16 mg/kg × 3 d (sequential), read-out: Concentration in kidneys): 730 ± 440 ng/g | concentration at 4 h ([4]; kidney, oral, RT2 Gy × 3 f'x with regorafenib 16 mg/kg × 3 d (concurrent), read-out: Concentration in kidneys): 130 ± 60 ng/g | concentration at 4 h ([4]; kidney, oral, RT9 Gy × 1 f'x with regorafenib 16 mg/kg × 1 d (concurrent), read-out: Concentration in kidneys): 180 ± 50 ng/g | concentration at 4 h ([4]; liver, oral, RT2 Gy × 1 f'x followed by regorafenib 16 mg/kg × 1 d (sequential), read-out: Concentration in liver): 2280 ± 750 ng/g | concentration at 4 h ([4]; liver, oral, RT2 Gy × 3 f'x followed by regorafenib 16 mg/kg × 3 d (sequential), read-out: Concentration in liver): 1680 ± 650 ng/g | concentration at 4 h ([4]; liver, oral, RT2 Gy × 3 f'x with regorafenib 16 mg/kg × 3 d (concurrent), read-out: Concentration in liver): 550 ± 270 ng/g | concentration at 4 h ([4]; liver, oral, RT9 Gy × 1 f'x with regorafenib 16 mg/kg × 1 d (concurrent), read-out: Concentration in liver): 1010 ± 580 ng/g | concentration at 4 h ([4]; lung, oral, RT2 Gy × 1 f'x followed by regorafenib 16 mg/kg × 1 d (sequential), read-out: Concentration in lung): 1270 ± 640 ng/g | concentration at 4 h ([4]; lung, oral, RT2 Gy × 3 f'x followed by regorafenib 16 mg/kg × 3 d (sequential), read-out: Concentration in lung): 990 ± 430 ng/g | concentration at 4 h ([4]; lung, oral, RT2 Gy × 3 f'x with regorafenib 16 mg/kg × 3 d (concurrent), read-out: Concentration in lung): 210 ± 90 ng/g | concentration at 4 h ([4]; lung, oral, RT9 Gy × 1 f'x with regorafenib 16 mg/kg × 1 d (concurrent), read-out: Concentration in lung): 170 ± 140 ng/g | concentration at 4 h ([4]; spleen, oral, RT2 Gy × 1 f'x followed by regorafenib 16 mg/kg × 1 d (sequential), read-out: Concentration in spleen): 680 ± 300 ng/g | concentration at 4 h ([4]; spleen, oral, RT2 Gy × 3 f'x followed by regorafenib 16 mg/kg × 3 d (sequential), read-out: Concentration in spleen): 410 ± 240 ng/g | concentration at 4 h ([4]; spleen, oral, RT2 Gy × 3 f'x with regorafenib 16 mg/kg × 3 d (concurrent), read-out: Concentration in spleen): 80 ± 60 ng/g | concentration at 4 h ([4]; spleen, oral, RT9 Gy × 1 f'x with regorafenib 16 mg/kg × 1 d (concurrent), read-out: Concentration in spleen): 140 ± 70 ng/g | concentration at 4 h ([4]; male, brain, oral, RT2 Gy × 1 f'x with regorafenib 16 mg/kg × 1 d (concurrent), read-out: Concentration in brain): 20 ± 30 ng/g | concentration at 4 h ([4]; male, brain, oral, RT9 Gy × 1 f'x followed by regorafenib 16 mg/kg × 1 d (sequential), read-out: Concentration in brain): 60 ± 50 ng/g | concentration at 4 h ([4]; male, brain, oral, RT9 Gy × 3 f'x followed by regorafenib 16 mg/kg × 3 d (sequential), read-out: Concentration in brain): 40 ± 80 ng/g | concentration at 4 h ([4]; male, brain, oral, RT9 Gy × 3 f'x with regorafenib 16 mg/kg × 3 d (concurrent), read-out: Concentration in brain): 10 ± 20 ng/g | concentration at 4 h ([4]; male, brain, po, 16 mg/kg p.o. × 1 d, no RT, read-out: Concentration in brain): 30 ± 40 ng/g
SMILES: CNC(=O)c1cc(Oc2ccc(NC(=O)Nc3ccc(Cl)c(C(F)(F)F)c3)c(F)c2)ccn1 [regorafenib, Regorafenib]
Colony formation, regorafenib with RT vs regorafenib alone (in words) ([1]; regorafenib 1, 10 and 20 μM, concurrent or sequential with RT): synergic effects to inhibit the colony formation | Colony formation of HA22T (in words) ([1]; regorafenib 1 to 20 μM and RT (2 and 9 Gy)): colony formation of HA22T were decreased | Median overall survival [2]: 26 months | Metabolic pathway (in words) [3]: metabolized via CYP3A4 | Biodistribution in heart, liver, lung, spleen and kidneys (in words) ([4]; concurrent RT2 Gy × 3 f'x and RT9 Gy × 3 f'x vs control (regorafenib × 3 d)): clearly decreased the biodistribution of regorafenib; also recorded: obviously decreased the biodistribution of regorafenib
